This is an account of results in US8551937B2, “Peptide having an extending action for half-life of object peptide in plasma” (priority 2008, dated 2013).

The series is described as follows: in vivo. The settings on record: rat; for AUC(0-inf) / C0 / half-life / Cmax / Tmax: male, SD, 0.1 mg/kg. The protocol:
Changes in ANP immunoreactivity concentration in plasma when a native ANP and a chimeric peptide (chimeric ANP) to which a half-life-extension peptide was bestowed were administered into vein of rats were investigated.
As a test system, male rats of an SD strain of 7 weeks age (provided from Nippon Charles River) were subjected to the experiment where one group comprised three rats. […] At that time, a rabbit polyclonal antibody (#8) recognizing a ring part of ANP was used as an antibody and ^125I-[Tyr^28] α-hANP was used as a labeling compound.
Pharmacokinetic parameters were calculated from the resulting changes in immunoreactivity concentrations in plasma. At that time, WinNonlin Professional Ver. 4.0.1 (manufactured by Pharsight Corporation, U.S.A.) was used as the analytical software. Method for the calculation of each parameter is mentioned as follows.
Concentration at time 0 (C0; extrapolated value, ng/mL), area under the curve for concentration in plasma vs. time (AUC; ng.min/mL) and quenching half-life (T½; minute(s)) were calculated as follows. C0 was calculated as a value at time by means of extrapolation from the changes in immunoreactivity concentration in plasma at each blood collection period. AUC was calculated by a trapezoidal method using the immunoreactivity concentrations in plasma at all measuring points (t) and an extrapolated value until the infinitive time was determined. T½ was calculated by means of a least-squares method from the inclination of a straight line connecting several points in a disappearing phase of the immunoreactivity concentration in plasma. In the case of a subcutaneous administration, C0 was not determined but the maximum concentration in plasma (Cmax; ng/mL) and the time reaching the maximum concentration in plasma (Tmax; min) were determined.

SMILES strings stand for the structures. Where a SMILES comes first, the peptide text is derived from it. Bridges are numbered along the chain shown (N, C = ends).

As a reminder, the AUC(0-inf) is the area under the concentration-time curve extrapolated to infinity. High values mean more exposure, low ones less exposure. The term half-life denotes the time needed for the level to fall by half in the phase considered. By Cmax is commonly meant the peak of the concentration-time curve. One may read the Tmax as the time at which the peak concentration occurs.

Regarding `CC[C@H](C)[C@@H]1NC(=O)[C@H](CCCNC(=N)N)NC(=O)[C@H](CC(=O)O)NC(=O)[C@H](CCSC)NC(=O)[C@H](CCCNC(=N)N)NC(=O)CNC(=O)CNC(=O)[C@H](Cc2ccccc2)NC(=O)[C@@H](NC(=O)[C@H](CCCNC(=N)N)NC(=O)[C@@H]2CCCN2C(=O)[C@H](CCC(N)=O)NC(=O)[C@H](CC(C)C)NC(=O)[C@H](CCCCN)NC(=O)[C@H](C)NC(=O)[C@@H]2CCCN2C(=O)[C@@H]2CCCN2C(=O)[C@H](CCCCN)NC(=O)[C@H](CCCCN)NC(=O)[C@H](CO)NC(=O)[C@H](CCC(=O)O)NC(=O)[C@H](CCCCN)NC(=O)[C@H](CCCNC(=N)N)NC(=O)[C@H](CCC(N)=O)NC(=O)[C@H](CCC(N)=O)NC(=O)[C@@H](N)C(C)C)CSSC[C@@H](C(=O)N[C@@H](CC(N)=O)C(=O)N[C@@H](CO)C(=O)N[C@@H](Cc2ccccc2)C(=O)N[C@@H](CCCNC(=N)N)C(=O)N[C@@H](Cc2ccc(O)cc2)C(=O)O)NC(=O)CNC(=O)[C@H](CC(C)C)NC(=O)CNC(=O)[C@H](CO)NC(=O)[C@H](CCC(N)=O)NC(=O)[C@H](C)NC(=O)CNC1=O` [Chimeric ANP (B)] (H-VQQRKESKKPPAKLQPRCFGGRMDRIGAQSGLGCNSFRY-OH; disulfide 18-34; N-terminus and C-terminus assumed), where the note is “iv”, the area under the curve AUC(0-inf) was 175 ng·h/mL, the C0 was determined as 1570 ± 361 ng/mL, the half-life worked out at 40 ± 12.4 min and the “concentration in plasma as compared with the native ANP” value is “rising concentration in plasma”. Moreover, for the setting “sc”, the AUC(0-inf) is 66.4 ng·h/mL, the highest level (Cmax) was 64.5 ± 40.7 ng/mL, the Tmax was 16.7 min and the half-life was determined as 57.3 ± 7.1 min. The “concentration in plasma as compared with the native ANP” value (sc) is on record as “rising concentration in plasma”.

Consider `CC[C@H](C)[C@@H]1NC(=O)[C@H](CCCNC(=N)N)NC(=O)[C@H](CC(=O)O)NC(=O)[C@H](CCSC)NC(=O)[C@H](CCCNC(=N)N)NC(=O)CNC(=O)CNC(=O)[C@H](Cc2ccccc2)NC(=O)[C@@H](NC(=O)[C@@H](NC(=O)[C@H](CCC(N)=O)NC(=O)[C@H](CCC(N)=O)NC(=O)[C@H](CCCNC(=N)N)NC(=O)[C@H](CCCCN)NC(=O)[C@H](CCC(=O)O)NC(=O)[C@H](CO)NC(=O)[C@H](CCCCN)NC(=O)[C@H](CCCCN)NC(=O)[C@@H]2CCCN2C(=O)[C@@H]2CCCN2C(=O)[C@H](C)NC(=O)[C@H](CCCCN)NC(=O)[C@H](CC(C)C)NC(=O)[C@H](CCC(N)=O)NC(=O)[C@@H]2CCCN2C(=O)[C@@H](N)CCCNC(=N)N)C(C)C)CSSC[C@@H](C(=O)N[C@@H](CC(N)=O)C(=O)N[C@@H](CO)C(=O)N[C@@H](Cc2ccccc2)C(=O)N[C@@H](CCCNC(=N)N)C(=O)N[C@@H](Cc2ccc(O)cc2)C(=O)O)NC(=O)CNC(=O)[C@H](CC(C)C)NC(=O)CNC(=O)[C@H](CO)NC(=O)[C@H](CCC(N)=O)NC(=O)[C@H](C)NC(=O)CNC1=O` [Chimeric ANP (C)] (H-RPQLKAPPKKSEKRQQVCFGGRMDRIGAQSGLGCNSFRY-OH; disulfide 18-34; N-terminus and C-terminus assumed), for which, where the note is “iv”, the AUC(0-inf) was 148 ng·h/mL, the C0 was determined as 1530 ± 442 ng/mL, the half-life turned out to be 27.2 ± 3.8 min and the “concentration in plasma as compared with the native ANP” value is “rising concentration in plasma”. Where the note is “sc”, the AUC(0-inf) is 56.7 ng·h/mL, the peak level (Cmax) was 55.1 ± 10.3 ng/mL, the time of peak concentration (Tmax) is 20 min and the half-life is 37.8 ± 7.8 min. For the same compound, the “concentration in plasma as compared with the native ANP” value (sc) is “rising concentration in plasma”.
